In ChEMBL document CHEMBL1201862, “PubChem BioAssay data set” (2004):
Active and inactive are the calls of the source.

Experiments:
HeLa = assay: toxicity to human HeLa cells – cell-based, 48 h, plate reader, cherry-picks, cytotoxicity control, dose response (AID 504942); format: functional
[1] = biological target: Acyl-homoserine lactone acylase PvdQ (Pseudomonas aeruginosa (strain LESB58), UniProt Q9I194); assay: PvdQ acylase enzyme activity blockers – biochemical, fluorescence, plate reader and imaging, cherry-picks, dose response (AID 493231)
Chain of Acyl-homoserine lactone acylase PvdQ (Q9I194 24-193 limits assumed): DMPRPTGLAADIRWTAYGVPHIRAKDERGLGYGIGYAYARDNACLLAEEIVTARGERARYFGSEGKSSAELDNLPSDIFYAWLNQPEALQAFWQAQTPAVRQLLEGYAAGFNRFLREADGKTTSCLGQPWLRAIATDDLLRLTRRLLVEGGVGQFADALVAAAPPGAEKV
Chain of Acyl-homoserine lactone acylase PvdQ (Q9I194 217-762 limits assumed): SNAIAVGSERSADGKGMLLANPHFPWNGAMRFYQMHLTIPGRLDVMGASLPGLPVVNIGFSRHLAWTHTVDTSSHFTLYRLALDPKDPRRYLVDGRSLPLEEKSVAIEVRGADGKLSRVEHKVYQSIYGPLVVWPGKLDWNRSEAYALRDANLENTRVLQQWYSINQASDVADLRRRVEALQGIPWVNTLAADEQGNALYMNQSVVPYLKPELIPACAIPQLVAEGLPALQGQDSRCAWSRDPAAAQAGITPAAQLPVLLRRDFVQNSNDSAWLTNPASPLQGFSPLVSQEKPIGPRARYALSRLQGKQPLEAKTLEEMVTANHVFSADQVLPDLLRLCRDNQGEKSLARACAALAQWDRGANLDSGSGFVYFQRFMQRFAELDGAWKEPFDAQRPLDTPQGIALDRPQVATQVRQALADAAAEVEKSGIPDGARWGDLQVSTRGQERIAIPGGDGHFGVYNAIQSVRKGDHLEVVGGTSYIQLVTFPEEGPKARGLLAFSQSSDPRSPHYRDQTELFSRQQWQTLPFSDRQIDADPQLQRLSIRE

A-375 [2] = assay: proliferation inhibition in MITF-low A375 cells – cell-based, cherry-pick samples, set 2, counter-screen for MITF modulator project, dose response (AID 540335); format: functional; conditions: Homo sapiens
A-375 [3] = assay: MITF: Counter assay: A375 proliferation Measured in Cell-Based System Using Plate Reader - 2084-03_Inhibitor_Dose_DryPowder_Activity. [Related pubchem assays (depositor defined):AID488944]; format: functional; conditions: Homo sapiens
[4] = biological target: T1, Microphthalmia-associated transcription factor (Homo sapiens, UniProt O75030); assay: reducers of TRPM1 reporter luminescence, concentration series – cell-based, SK-MEL-5, cherry-picked, set 3, MITF inhibitor project, dose response (AID 493073); format: functional;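 note: SK-MEL-5 melanoma cells with luciferase driven by the MITF target TRPM1 promoter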
T1 sequence (O75030 whole entry): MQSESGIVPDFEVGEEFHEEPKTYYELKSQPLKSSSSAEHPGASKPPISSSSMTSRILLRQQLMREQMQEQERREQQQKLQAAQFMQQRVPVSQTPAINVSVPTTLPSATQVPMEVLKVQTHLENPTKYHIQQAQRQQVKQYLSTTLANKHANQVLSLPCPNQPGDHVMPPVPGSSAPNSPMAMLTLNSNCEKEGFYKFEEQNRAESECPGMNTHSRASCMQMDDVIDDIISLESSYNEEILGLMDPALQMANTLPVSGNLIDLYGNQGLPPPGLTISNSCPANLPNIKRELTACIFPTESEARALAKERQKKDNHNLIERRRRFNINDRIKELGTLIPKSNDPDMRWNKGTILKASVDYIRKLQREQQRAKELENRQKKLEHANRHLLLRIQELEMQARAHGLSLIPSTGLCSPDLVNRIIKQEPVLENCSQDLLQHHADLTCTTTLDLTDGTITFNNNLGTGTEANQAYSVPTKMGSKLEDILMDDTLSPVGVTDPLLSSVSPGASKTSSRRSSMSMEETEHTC

Escherichia coli = assay: microbe, parasite or virus in culture
Hexokinase HKDC1 = biological target: T2, Hexokinase HKDC1 (Homo sapiens, UniProt Q2TB90); assay: SAR analysis of small molecule inhibitors of hexokinase domain containing I (HKDC1). [Related pubchem assays (depositor defined):AID493160, AID493190]; format: functional
T2 sequence (Q2TB90 whole entry): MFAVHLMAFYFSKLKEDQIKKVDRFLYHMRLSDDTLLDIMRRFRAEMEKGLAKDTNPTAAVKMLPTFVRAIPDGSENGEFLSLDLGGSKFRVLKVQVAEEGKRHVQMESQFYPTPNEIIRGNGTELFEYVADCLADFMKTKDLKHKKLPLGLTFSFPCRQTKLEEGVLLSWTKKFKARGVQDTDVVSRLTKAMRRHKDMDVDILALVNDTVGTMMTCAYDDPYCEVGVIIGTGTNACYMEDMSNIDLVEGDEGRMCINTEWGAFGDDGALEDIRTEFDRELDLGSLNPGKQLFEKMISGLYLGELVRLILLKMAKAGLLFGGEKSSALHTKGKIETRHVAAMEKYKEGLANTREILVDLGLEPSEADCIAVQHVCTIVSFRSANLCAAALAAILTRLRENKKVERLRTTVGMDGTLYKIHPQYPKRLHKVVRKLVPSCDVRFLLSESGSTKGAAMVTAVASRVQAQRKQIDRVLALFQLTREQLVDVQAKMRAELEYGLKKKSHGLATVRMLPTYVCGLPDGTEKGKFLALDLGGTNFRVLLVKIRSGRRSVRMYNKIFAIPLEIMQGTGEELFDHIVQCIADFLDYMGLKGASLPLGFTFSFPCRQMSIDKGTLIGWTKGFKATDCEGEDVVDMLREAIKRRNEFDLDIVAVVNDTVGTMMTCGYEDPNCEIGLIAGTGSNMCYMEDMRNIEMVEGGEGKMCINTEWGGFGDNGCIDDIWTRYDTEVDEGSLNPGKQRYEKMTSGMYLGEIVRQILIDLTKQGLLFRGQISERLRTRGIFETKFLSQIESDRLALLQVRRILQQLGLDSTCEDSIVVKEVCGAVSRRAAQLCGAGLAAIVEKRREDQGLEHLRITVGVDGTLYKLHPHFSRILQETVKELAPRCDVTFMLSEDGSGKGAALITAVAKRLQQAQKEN

Hexokinase-1 = Hexokinase-1 (Homo sapiens, UniProt P19367); assay: SAR analysis of small molecule inhibitors of hexokinase domain containing I (HKDC1) in the hexokinase 1 selectivity assay. [Related pubchem assays (depositor defined):AID493160, AID493190]; format: functional
Chain of Hexokinase-1 (P19367 whole entry, the tested form may be a part): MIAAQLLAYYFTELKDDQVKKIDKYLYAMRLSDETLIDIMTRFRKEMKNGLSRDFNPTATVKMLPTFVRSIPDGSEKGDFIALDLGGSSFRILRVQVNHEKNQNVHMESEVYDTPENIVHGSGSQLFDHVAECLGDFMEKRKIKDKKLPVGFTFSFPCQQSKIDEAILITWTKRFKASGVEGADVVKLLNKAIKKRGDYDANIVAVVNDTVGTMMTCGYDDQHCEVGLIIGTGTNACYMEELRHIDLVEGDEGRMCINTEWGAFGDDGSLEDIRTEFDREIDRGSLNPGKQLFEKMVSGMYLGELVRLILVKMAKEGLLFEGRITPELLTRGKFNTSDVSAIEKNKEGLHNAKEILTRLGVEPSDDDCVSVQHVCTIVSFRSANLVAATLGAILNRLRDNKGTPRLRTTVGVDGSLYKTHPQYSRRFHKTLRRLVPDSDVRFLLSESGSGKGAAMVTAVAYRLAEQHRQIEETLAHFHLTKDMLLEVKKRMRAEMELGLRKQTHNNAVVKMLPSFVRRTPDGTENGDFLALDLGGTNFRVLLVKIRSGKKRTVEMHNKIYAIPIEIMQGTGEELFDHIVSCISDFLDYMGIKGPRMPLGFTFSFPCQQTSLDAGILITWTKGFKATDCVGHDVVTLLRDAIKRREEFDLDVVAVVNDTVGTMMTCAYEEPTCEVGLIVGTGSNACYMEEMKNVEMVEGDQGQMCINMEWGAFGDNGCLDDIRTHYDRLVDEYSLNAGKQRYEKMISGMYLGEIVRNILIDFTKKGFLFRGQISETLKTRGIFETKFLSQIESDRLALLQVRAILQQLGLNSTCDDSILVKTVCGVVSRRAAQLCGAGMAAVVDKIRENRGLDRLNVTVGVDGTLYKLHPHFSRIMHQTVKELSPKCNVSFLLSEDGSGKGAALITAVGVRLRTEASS

[5] = biological target: 5-hydroxytryptamine receptor 5A (Homo sapiens, UniProt P47898); assay: Counterscreen for agonists of OPRM1-OPRD1 heterodimerization: luminescence-based cell-based high throughput dose response assay to identify agonists of 5-hydroxytryptamine (serotonin) 5A receptor (HTR5A). [Related pubchem assays (depositor defined):AID504326, AID504355, AID504692, AID504904, AID504905]; format: functional
Chain of 5-hydroxytryptamine receptor 5A (P47898 whole entry): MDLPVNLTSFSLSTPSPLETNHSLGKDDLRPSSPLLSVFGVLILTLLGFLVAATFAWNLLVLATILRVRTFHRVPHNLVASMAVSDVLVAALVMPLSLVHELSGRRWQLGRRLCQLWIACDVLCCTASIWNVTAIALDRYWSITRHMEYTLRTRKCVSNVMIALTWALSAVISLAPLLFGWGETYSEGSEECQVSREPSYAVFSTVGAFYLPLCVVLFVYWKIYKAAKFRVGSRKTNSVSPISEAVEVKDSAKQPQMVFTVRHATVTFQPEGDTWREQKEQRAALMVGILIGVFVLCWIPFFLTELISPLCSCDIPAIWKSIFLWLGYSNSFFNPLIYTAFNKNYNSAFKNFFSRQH

[6] = biological target: T3, Short transient receptor potential channel 4 (Mus musculus, UniProt Q9QUQ5); assay: calcium entry via TRPC4 opening agents – cell-based, HEK293 TRPC4/mu-opioid, Fluo-4 calcium, dose response (AID 434937); format: functional
T3 sequence (Q9QUQ5 whole entry): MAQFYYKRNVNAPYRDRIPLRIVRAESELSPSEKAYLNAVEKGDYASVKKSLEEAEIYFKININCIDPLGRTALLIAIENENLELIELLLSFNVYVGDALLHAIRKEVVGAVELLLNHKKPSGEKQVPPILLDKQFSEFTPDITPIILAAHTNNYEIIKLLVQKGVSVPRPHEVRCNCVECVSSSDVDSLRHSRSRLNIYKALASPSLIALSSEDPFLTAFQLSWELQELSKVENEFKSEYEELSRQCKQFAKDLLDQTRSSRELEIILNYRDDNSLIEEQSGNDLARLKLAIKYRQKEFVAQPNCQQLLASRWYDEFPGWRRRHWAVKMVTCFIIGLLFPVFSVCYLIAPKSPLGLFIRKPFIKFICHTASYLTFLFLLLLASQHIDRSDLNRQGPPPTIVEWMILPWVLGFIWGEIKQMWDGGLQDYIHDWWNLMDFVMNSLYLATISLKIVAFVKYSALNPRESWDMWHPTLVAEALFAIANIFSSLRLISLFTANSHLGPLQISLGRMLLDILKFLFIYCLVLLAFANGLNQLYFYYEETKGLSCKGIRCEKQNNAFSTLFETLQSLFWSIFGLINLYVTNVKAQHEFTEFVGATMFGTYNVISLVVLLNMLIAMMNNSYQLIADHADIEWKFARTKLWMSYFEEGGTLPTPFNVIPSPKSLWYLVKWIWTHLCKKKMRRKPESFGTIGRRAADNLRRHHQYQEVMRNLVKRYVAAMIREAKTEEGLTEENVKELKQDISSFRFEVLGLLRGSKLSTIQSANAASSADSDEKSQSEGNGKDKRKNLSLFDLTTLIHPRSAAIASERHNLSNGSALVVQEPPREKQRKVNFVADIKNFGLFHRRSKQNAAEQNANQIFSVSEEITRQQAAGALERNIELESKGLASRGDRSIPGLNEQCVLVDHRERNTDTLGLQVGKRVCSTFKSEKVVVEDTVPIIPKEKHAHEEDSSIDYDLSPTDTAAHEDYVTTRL

Mu-type opioid receptor = Mu-type opioid receptor (Homo sapiens, UniProt P35372); assay: (§1) Counterscreen for agonists of heterodimerization of the mu 1 (OPRM1) and delta 1 (OPRD1) opioid receptors: Luminescence-based cell-based high throughput dose response assay to identify agonists of OPRM1 homodimerization.; format: functional
Chain of Mu-type opioid receptor (P35372 whole entry): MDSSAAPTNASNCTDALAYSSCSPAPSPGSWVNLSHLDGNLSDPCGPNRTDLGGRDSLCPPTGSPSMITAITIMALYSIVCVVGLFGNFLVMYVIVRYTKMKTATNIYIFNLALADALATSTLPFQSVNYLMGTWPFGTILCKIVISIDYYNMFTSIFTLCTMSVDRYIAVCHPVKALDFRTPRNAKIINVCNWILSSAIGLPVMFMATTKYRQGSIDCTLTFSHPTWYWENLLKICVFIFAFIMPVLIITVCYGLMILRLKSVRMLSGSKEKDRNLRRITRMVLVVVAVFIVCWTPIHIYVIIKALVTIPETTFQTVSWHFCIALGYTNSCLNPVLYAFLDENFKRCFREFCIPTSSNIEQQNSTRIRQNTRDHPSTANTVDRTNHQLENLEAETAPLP

[7] = biological target: Delta-type opioid receptor (Homo sapiens, UniProt P41143); assay: as §1, with “of OPRD1” for “of OPRM1”, “homodimerization. [Related pubchem assays (depositor defined):AID504326, AID504355, AID504692, AID504904, AID504905]” for “homodimerization.”; format: functional
Chain of Delta-type opioid receptor (P41143 whole entry): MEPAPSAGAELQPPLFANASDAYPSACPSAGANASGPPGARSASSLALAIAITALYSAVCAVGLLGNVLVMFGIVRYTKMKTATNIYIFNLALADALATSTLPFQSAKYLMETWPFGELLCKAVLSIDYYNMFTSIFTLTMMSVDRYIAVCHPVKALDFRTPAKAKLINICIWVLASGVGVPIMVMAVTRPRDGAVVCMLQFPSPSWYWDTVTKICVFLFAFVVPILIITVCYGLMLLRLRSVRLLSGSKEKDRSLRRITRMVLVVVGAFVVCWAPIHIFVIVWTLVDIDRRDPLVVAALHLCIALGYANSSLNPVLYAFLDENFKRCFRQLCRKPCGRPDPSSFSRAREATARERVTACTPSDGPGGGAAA

**Q.** Which AC50 (HeLa) does the source give for CN(Cc1ccccc1)c1ncnc2ccc(Br)cc12 here?
**A.** Its AC50 is 115 µM (active).

**Q.** And the AC50 [1]?
**A.** Its AC50 is 4.49 µM (active).

**Q.** Which AC50 (A-375 [2]) does the source give for CCOC(=O)Cn1cc([N+](=O)[O-])nc1[N+](=O)[O-] here?
**A.** The AC50 was > 11 µM (active).

**Q.** And the AC50 (A-375 [3])?
**A.** The AC50 was > 11 µM (active).

**Q.** And the AC50 [4]?
**A.** The AC50 was 29.5 µM (active).

**Q.** How did the AC50 (Escherichia coli) turn out when CN1CCN(C(=S)c2cn(Cc3ccc(Br)cc3)c3ccccc23)CC1 was run?
**A.** Its AC50 is 48.2 µM (active).

**Q.** For O=c1c2ccccc2nc(/C=C/c2cccnc2)n1Cc1ccc(Cl)cc1, which IC50 (Hexokinase HKDC1) is on record?
**A.** The IC50 was > 80 µM (inactive).

**Q.** What about the IC50 (Hexokinase-1) of the same compound?
**A.** Its IC50 is > 80 µM (inactive).

**Q.** With CCC(=O)OC1(c2cccc(C)c2)CC(C)N(C)CC1C (configuration not stated) as the compound, how does the EC50 [5] read?
**A.** The EC50 was > 92.5 µM (inactive).

**Q.** What about the EC50 [6] of the same compound?
**A.** The EC50 was 0.335 µM (active).

**Q.** And the EC50 (Mu-type opioid receptor)?
**A.** The EC50 was > 92.5 µM (inactive).

**Q.** What about the EC50 [7] of the same compound?
**A.** The EC50 was > 92.5 µM (inactive).
